Earlier results on one compound are cited in US20200199640A1, “PROCESS FOR OBTAINING […] A HOST CELL COMPRISING POLYNUCLEOTIDES ENCODING FOR PO[…] IN THE OMPHALOTIN BIOSYNTHESIS” (TECHNISCHE UNIVERSITÄT BERLIN, priority 2017, published 2020).

Non-standard residues stand in square brackets, D forms with d. Residues, ends and D or L forms follow the SMILES beside them. ξ: configuration not given here. NMeIle(3ξ) = CCC(C)[C@H](NC)C(=O)O; Ile(3ξ) = CCC(C)[C@H](N)C(=O)O; NMeV = CN[C@H](C(=O)O)C(C)C; Sar = CNCC(=O)O

The conditions of data set [1]: literature statement (A. Mayer et al, Pestic. Sci. 1999, 55, 27-30).
For data set [2] the following is noted: literature statement (A. Mayer et al, Pestic. Sci. 1999, 55, 27-30). This is another data set of the same source.
The subject of data set [3] is Meloidogyne incognita. Conditions: literature statement (A. Mayer et al, Pestic. Sci. 1999, 55, 27-30).
The conditions of data set [4]: literature statement (A. Mayer et al, Pestic. Sci. 1999, 55, 27-30). The source holds these as a separate data set.

Consider `CCC(C)[C@@H]1NC(=O)[C@H](C(C)C)N(C)C(=O)[C@H](Cc2c[nH]c3ccccc23)NC(=O)CN(C)C(=O)[C@H](C(C)CC)N(C)C(=O)[C@H](C(C)C)NC(=O)CN(C)C(=O)[C@H](C(C)CC)N(C)C(=O)[C@H](C(C)C)N(C)C(=O)CN(C)C(=O)[C@H](C(C)C)N(C)C(=O)[C@H](C(C)C)N(C)C1=O` (stereo partly shown) [Omphalotin A] (cyclo([Ile(3ξ)][NMeV][NMeV][Sar][NMeV][NMeIle(3ξ)][Sar]V[NMeIle(3ξ)][Sar]W[NMeV])), for which the antifungal activity entry in data set [1] is given as “no further phytotoxic, antibacterial or antifungal activities”. Also, the phytotoxic activity result in data set [2] is reported as “no further phytotoxic, antibacterial or antifungal activities”. The “activity against the plant pathogen nematode Meloidogyne incognita” value in data set [3] is “strong and selective activity”. Further, the antibacterial activity entry in data set [4] was “no further phytotoxic, antibacterial or antifungal activities”.
